Series [1] relates to gastric acid secretion. The experiment in a line: Inhibition of Gastric Acid Secretion Observed Under Acute Fistula Method. Type of series: in vivo, male Wistar rats. The note with it: Rattus norvegicus; 30 mg/kg intraduodenally, rats, histamine 10 mg/kg s.c., cumulative 2 h. On the procedure:
Inhibition of Gastric Acid Secretion Observed Under Acute Fistula Method
Male Wistar rats (6-8 weeks) fasted for 24 hours (water ad libitum) were used. The rats were anesthetized by intraperitoneal administration of 1.25 g/kg of urethane. The abdomen was incised, and acute gastric fistula was connected to the stomach. Two ml of saline was injected into the stomach, and recovered every 20 minutes. The gastric acid secretion was determined by titrating of gastric juice by 150 mM sodium hydroxide up to pH7.0 using an autotitrator. Test compounds (30 mg/kg) suspended in a 0.5% aqueous sodium carboxymethylcellulose (CMC-Na) solution were administered intraduodenally. After 1 hour, gastric acid secretion was stimulated by subcutaneous administration of histamine dihydrochloride dissolved in saline (10 mg/kg). Inhibition (%) of gastric acid secretion was determined by calculating cumulative amount of the acid secretion during two hours after histamine stimulation and then comparing the cumulative amount with that in the control group. In the control group, only 0.5% aqueous CMC-Na solution was administered intraduodenally.

Another series has as its target T1, H^+ /K^+ -ATPase (Sus scrofa, UniProt P19156).
T1 construct: a microsome fraction prepared from porcine gastric mucosa was used as a standard enzyme; from tissue; host or cells: porcine gastric mucosa, microsome fraction
The experiment in a line: Inhibitory Action on H^+ /K^+ -ATPase Activity. The series is classed as biochemical. The settings on record: microsome fraction from porcine gastric mucosa, pH7.4, 37° C., 30 min preincubation, 15 min reaction. On the procedure: Inhibitory Action on H^+ /K^+ -ATPase Activity
According to the method of Hongo et al. [The Japanese Journal of Pharmacology, 52, p295, (1990)], a microsome fraction prepared from porcine gastric mucosa was used as a standard enzyme. The standard enzyme (10-20lig protein) and the test compound (0.1-100 μM) dissolved in dimethylsulfoxide was incubated at 37° C. for 30 minutes in the 50 mM Tris-acetate buffer (pH7.4, containing 2 mM magnesium chloride, 5 mM potassium chloride). The enzyme reaction was started by adding adenosinetriphosphate (ATP). Tris at the final concentration of 2 mM, and the reaction was kept at 37° C. for 15 minutes. The reaction was stopped by adding chilled 10% trichloroacetic acid. Inorganic phosphate released during the reaction was calorimetrically determined according to the method of Fiske-Subbarow [The Journal of Biological Chemistry, 66, p375, (1925)]. H^+ /K^+ -ATPase activity was determined by the difference of the enzyme activities under the conditions with or without potassium chloride. The inhibitory activities of test compounds were determined as the 50% inhibitory concentration (IC50 value) from reaction-concentration curve, and the results are shown in Table 3.

Series [2] deals with gastric acid secretion. Kind of series: Inhibition of Gastric Acid Secretion Observed Under Stomach Perfusion Method. The series is classed as in vivo, male Sprague Dawrey rats. The note with it: Rattus norvegicus, ip, 1 h; rats, histamine i.v. 8 mg/kg/hr, inhibition one hour after administration (1-10 mg/kg, "intrapenetorially"); read-out: ID50 (dose showing 50% inhibition of acid secretion). On the procedure: Inhibition of Gastric Acid Secretion Observed Under Stomach Perfusion Method
Male Sprague Dawrey rats (6-7weeks) fasted for 24 hours were used (water ad libitum). The rats were anesthetized by intraperitoneal administration of 1.25 g/kg of urethane. The abdomen was incised, and gastral cavity was perfused with saline during experiment. The perfusate was titrated by 10 mM sodium hydroxide up to pH5.5 using an autotitrator in accordance with Stat-method. Gastric acid secretion was stimulated by intravenous administration of histamine dihydrochloride (8 mg/kg/hr). Two hours after histamine stimulation, a test compound 1-10 mg/kg) was administered intrapenetorially. The test compound was mixed with small amount of polysorbate-80, and the mixture was suspended in saline. The test compound was evaluated using ID50 (dose showing 50% inhibition of acid secretion) which was calculated based on inhibition of the acid secretion observed one hour after administration of the compound.

On the set-up of series [3]: species or system male ICR mice. The note with it: mouse, in vivo, po, 10080 min. On the procedure:
Male ICR mice (6 weeks, 3 mice per group) fasted for 16 hours were used ad libitum). A test compound suspended in 5% aqueous gum arabic solution was orally administered. After administration, mortality of the animals observed during 7 days and approximate lethal dose was determined.

T1 sequence (P19156 2-1034 limits assumed): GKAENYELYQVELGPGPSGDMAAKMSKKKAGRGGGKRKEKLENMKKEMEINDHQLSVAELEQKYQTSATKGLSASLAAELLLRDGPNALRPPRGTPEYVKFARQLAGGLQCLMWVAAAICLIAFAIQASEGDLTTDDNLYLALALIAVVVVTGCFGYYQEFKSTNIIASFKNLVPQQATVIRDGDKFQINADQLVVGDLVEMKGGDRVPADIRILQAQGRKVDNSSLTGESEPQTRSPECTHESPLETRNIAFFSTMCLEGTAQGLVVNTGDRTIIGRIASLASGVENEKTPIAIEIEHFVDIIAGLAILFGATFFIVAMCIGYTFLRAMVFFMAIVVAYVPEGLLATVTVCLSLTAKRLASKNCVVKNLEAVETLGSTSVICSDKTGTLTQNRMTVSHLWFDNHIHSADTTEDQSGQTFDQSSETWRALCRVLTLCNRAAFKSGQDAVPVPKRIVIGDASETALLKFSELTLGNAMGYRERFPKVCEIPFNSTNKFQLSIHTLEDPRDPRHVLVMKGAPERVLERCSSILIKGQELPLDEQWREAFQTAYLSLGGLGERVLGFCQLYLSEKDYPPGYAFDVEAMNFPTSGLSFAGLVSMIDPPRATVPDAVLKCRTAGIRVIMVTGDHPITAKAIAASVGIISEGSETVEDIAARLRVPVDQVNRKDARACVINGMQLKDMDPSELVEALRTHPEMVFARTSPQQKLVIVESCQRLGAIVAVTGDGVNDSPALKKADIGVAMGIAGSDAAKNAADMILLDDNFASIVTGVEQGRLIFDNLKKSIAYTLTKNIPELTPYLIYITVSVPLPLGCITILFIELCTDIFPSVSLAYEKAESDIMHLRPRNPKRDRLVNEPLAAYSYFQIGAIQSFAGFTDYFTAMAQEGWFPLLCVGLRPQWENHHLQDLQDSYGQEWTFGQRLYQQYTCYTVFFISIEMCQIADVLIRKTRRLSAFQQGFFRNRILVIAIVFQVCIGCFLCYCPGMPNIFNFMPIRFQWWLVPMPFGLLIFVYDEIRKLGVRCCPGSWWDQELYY
T1 sequence (P18434 whole entry partner): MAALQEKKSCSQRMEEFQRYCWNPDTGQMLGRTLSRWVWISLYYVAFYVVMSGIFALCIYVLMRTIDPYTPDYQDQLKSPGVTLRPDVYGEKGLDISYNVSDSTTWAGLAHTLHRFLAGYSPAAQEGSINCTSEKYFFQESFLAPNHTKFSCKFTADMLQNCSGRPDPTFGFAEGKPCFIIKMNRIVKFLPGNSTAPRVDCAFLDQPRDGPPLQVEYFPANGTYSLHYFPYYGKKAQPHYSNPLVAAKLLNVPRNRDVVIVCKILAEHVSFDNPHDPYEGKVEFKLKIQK

Regarding `Cc1ccccc1-c1nc2c3cc(Cl)ccc3ccn2c1N` [Compound 6, 3-Amino-9-chloro-2-(2-methylphenyl)imidazo[2,1-a]isoquinoline], in the series with gastric acid secretion [1], the inhibition in vivo (commonly the share of the control response that was lost under treatment) at 30 mg/kg is 79.6%. For the same compound, at H^+ /K^+ -ATPase, half-maximal inhibition (IC50) was put at 12 µM. The ED50 in the series with gastric acid secretion [2] was 5 mg/kg. Moreover, the Approximate lethal dose in series [3] is on record as > 2,000 mg/kg.
In the series on gastric acid secretion [1], `Cc1ccccc1-c1nc2c3c(Cl)cccc3ccn2c1N` [Compound 7, 3-Amino-10-chloro-2-(2-methylphenyl)imidazo[2,1-a]isoquinoline] showed an inhibition in vivo at 30 mg/kg of 74.9%. The IC50 (in general, the point on the concentration scale where inhibition reaches its midpoint) against H^+ /K^+ -ATPase came out at 8 µM.
On to `Cc1ccccc1-c1nc2c3ccccc3cc(C)n2c1N` [Compound 9, 3-Amino-5-methyl-2-(2-methylphenyl)imidazo[2,1-a]isoquinoline], for which, in the series on gastric acid secretion [1], at 30 mg/kg the inhibition in vivo was 90.7%. The IC50 on H^+ /K^+ -ATPase worked out at 34 µM. Further, the ED50 with gastric acid secretion [2] amounted to 3.1 mg/kg. For the same compound, the Approximate lethal dose in series [3] is listed as > 2,000 mg/kg.
As to `COc1ccc2ccn3c(N)c(-c4ccccc4C)nc3c2c1` [Compound 26, 3-Amino-9-methoxy-2-(2-methylphenyl)imidazo[2,1-a]isoquinoline], at 30 mg/kg the inhibition in vivo in the series on gastric acid secretion [1] was 90.8%. It took 32 µM to reach half-maximal inhibition against H^+ /K^+ -ATPase (IC50). For the same compound, in the series with gastric acid secretion [2], the ED50 is 2.8 mg/kg. For the same compound, the Approximate lethal dose in series [3] is > 2,000 mg/kg.
In turn, `CSc1cccc2c1ccn1c(N)c(-c3ccccc3C)nc21` [Compound 46, 3-Amino-2-(2-methylphenyl)-7-(methylthio)imidazo[2,1-a]isoquinoline] gave an inhibition in vivo at 30 mg/kg with gastric acid secretion [1] of 73.8%. This compound showed an IC50 on H^+ /K^+ -ATPase of 8.4 µM.
For `COc1ccc2ccn3c(N)c(-c4sccc4C)nc3c2c1` [Compound 75, 3-Amino-9-methoxy-2-(3-methyl-2-thienyl)imidazo[2,1-a]isoquinoline] the same measures were 73.3% and 6.4 µM.
On H^+ /K^+ -ATPase, `Cc1cc(-c2nc3c4ccccc4ccn3c2N)c(C)o1` [Compound 91, 3-Amino-2-(2,5-dimethyl-3-furyl)imidazo[2,1-a]isoquinoline] returned an IC50 of 5.6 µM. The Approximate lethal dose in series [3] was > 2,000 mg/kg.
For `Cc1ccccc1-c1nc2n(c1N)CCc1ccccc1-2` [Compound 96, 3-Amino-2-(2-methylphenyl)-5,6-dihydroimidazo[2,1-a]isoquinoline], on H^+ /K^+ -ATPase, the IC50 is 17.5 µM. The ED50 with gastric acid secretion [2] is 8.8 mg/kg.
In the series with gastric acid secretion [1], `CCNc1c(-c2sccc2C)nc2c3ccccc3c(OC)cn12` [Compound 176, 3-Ethylamino-6-methoxy-2-(3-methyl-2-thienyl)imidazo[2,1-a]isoquinoline] showed an inhibition in vivo at 30 mg/kg of 49.9%. The IC50 on H^+ /K^+ -ATPase stood at 9 µM. In addition, the Approximate lethal dose in series [3] is > 2,000 mg/kg.
As for `CCNc1c(-c2csc(Cl)c2C)nc2c3ccccc3ccn12` [Compound 179, 2-(2-Chloro-3-methyl-4-thienyl)-3-ethylaminoimidazo[2,1-a]isoquinoline], the inhibition in vivo at 30 mg/kg in the series with gastric acid secretion [1] was 52.8%. Moreover, the midpoint of inhibition on H^+ /K^+ -ATPase, the IC50, lay at 4.8 µM. Further, the Approximate lethal dose in series [3] was > 2,000 mg/kg.
`CCCNc1c(-c2ccccc2C)nc2c3ccccc3c(OC)cn12` [Compound 182, 6-Methoxy-2-(2-methylphenyl)-3-propylaminoimidazo[2,1-a]isoquinoline] registered an inhibition in vivo at 30 mg/kg with gastric acid secretion [1] of 58.4%. Also, half-maximal inhibition at H^+ /K^+ -ATPase (IC50) required 11 µM. In series [3], the Approximate lethal dose is recorded as > 2,000 mg/kg.
`Cc1ccccc1-c1nc2c3ccccc3ccn2c1NCCC(C)C` [Compound 188, 3-Isopentylamino-2-(2-methylphenyl)imidazo[2,1-a]isoquinoline] returned an inhibition in vivo at 30 mg/kg with gastric acid secretion [1] of 79.1%. Moreover, at H^+ /K^+ -ATPase, the IC50 amounted to 10.5 µM. For the same compound, the Approximate lethal dose in series [3] is on record as > 2,000 mg/kg.
The compound `CCCN(CC)c1c(-c2ccccc2C)nc2c3ccccc3ccn12` [Compound 207, 3-(N-Ethyl-N-propylamino)-2-(2-methylphenyl)imidazo[2,1-a]isoquinoline] had an inhibition in vivo at 30 mg/kg with gastric acid secretion [1] of 67.4%. On H^+ /K^+ -ATPase, this compound had an IC50 of 9.3 µM.
As to `CCCN(CC)c1c(-c2sccc2C)nc2c3ccccc3ccn12` [Compound 212, 3-(N-Ethyl-N-propylamino)-2-(3-methyl-2-thienyl)imidazo[2,1-a]isoquinoline], the midpoint of inhibition against H^+ /K^+ -ATPase, the IC50, lay at 1.9 µM. The Approximate lethal dose in series [3] is recorded as > 2,000 mg/kg.
Turning to `CCN(CCCSC)c1c(-c2ccccc2C)nc2c3ccccc3ccn12` [Compound 214, 3-[N-Ethyl-N-(3-methylthiopropyl)amino]-^2-(2-methylphenyl)imidazo[2,1-a]isoquinoline], the inhibition in vivo at 30 mg/kg with gastric acid secretion [1] was determined as 56%. The IC50 against H^+ /K^+ -ATPase worked out at 7 µM.
With `Cc1ccccc1-c1nc2c3ccccc3ccn2c1N1CCCCC1` [Compound 217, 2-(2-Methylphenyl)-3-piperidinoimidazo[2,1-a]isoquinoline], 4.7 µM corresponded to half-maximal inhibition against H^+ /K^+ -ATPase (IC50). The Approximate lethal dose in series [3] is > 2,000 mg/kg.
In turn, `C=CCN(CC=C)c1c(-c2ccccc2C)nc2c3ccccc3ccn12` [Compound 223, 3-diallylamino-2-(2-methylphenyl)imidazo[2,1-a]isoquinoline] had an inhibition in vivo at 30 mg/kg in the series with gastric acid secretion [1] of 60.1%. It took 4.5 µM to reach half-maximal inhibition against H^+ /K^+ -ATPase (IC50).
The compound `Cc1cc2sccc2c2nc(-c3ccccc3)c(N)n12` [Compound 230, 3-Amino-5-methyl-2-phenylimidazo[1,2-a]thieno[3,2-c]pyridine] gave an IC50 against H^+ /K^+ -ATPase of 20 µM. Further, the ED50 in the series with gastric acid secretion [2] was 6.2 mg/kg.
On H^+ /K^+ -ATPase, `Nc1c(-c2ccccc2Cl)nc2c3ccsc3ccn12` [Compound 232, 3-Amino-2-(2-chlorophenyl)imidazo[1,2-a]thieno[3,2-c]pyridine] gave an IC50 of 17 µM. Further, the ED50 with gastric acid secretion [2] turned out to be 3.2 mg/kg.
As for `Cc1ccccc1-c1nc2c3ccsc3ccn2c1N` [Compound 234, 3-Amino-2-(2-methylphenyl)imidazo[1,2-a]thieno[3,2-c]pyridine], the IC50 on H^+ /K^+ -ATPase came to 7.6 µM. Moreover, the ED50 in the series with gastric acid secretion [2] turned out to be 1.8 mg/kg.
The like results for `Cc1sccc1-c1nc2c3ccsc3cc(C)n2c1N` [Compound 255, 3-Amino-5-methyl-2-(2-methyl-3-thienyl)imidazo[1,2-a]thieno[3,2-c]pyridine] were, in that order, 6.6 µM and 1 mg/kg.
The compound `Cc1ccccc1-c1nc2c3ccn(C)c3ccn2c1N` [Compound 291, 3-Amino-7-methyl-2-(2-methylphenyl)imidazo[1,2-a]pyrrolo[3,2-c]pyridine] registered an IC50 on H^+ /K^+ -ATPase of 4.8 µM. For the same compound, the ED50 in the series on gastric acid secretion [2] was found to be 6.4 mg/kg.
Turning to `Cc1ccccc1-c1nc2c3sccc3ccn2c1N` [Compound 310, 3-Amino-2-(2-methylphenyl)imidazo[1,2-a]thieno[2,3-c]pyridine], the IC50 on H^+ /K^+ -ATPase stood at 26 µM. Further, the ED50 in the series on gastric acid secretion [2] turned out to be 3 mg/kg. For the same compound, in series [3], the Approximate lethal dose is on record as > 2,000 mg/kg.
Take `CCNc1c(-c2ccccc2C)nc2c3ccsc3ccn12` [Compound 340, 3-Ethylamino-2-(2-methylphenyl)imidazo[1,2-a]thieno[3,2-c]pyridine]: 33 µM corresponded to half-maximal inhibition at H^+ /K^+ -ATPase (IC50). For the same compound, in the series on gastric acid secretion [2], the ED50 was 4.9 mg/kg.

For the origin of these results see patent US6020342A, “Fused imidazo[1,2-A]pyridines” (Shinnippon Pharmaceutical, Inc., priority 1995, dated 2000).
